# Assay results: patent publication US10253041B2, “7-phenylethylamino-4H-pyrimido[4,5-d][1,3]oxazin-2-one compounds and their use as mutant IDH1 inhibitors” (Eli Lilly and Company, priority 2015, dated 2019)
# Where a name gives a salt, the structure may show the parent alone. Read-outs that look alike come from different tables or passages of the source.
# Columns and labels:
# [1] = test system: IDH1/R132H in U87MG glioma cells; assay: U87MG/IDH1R132H cell assay (intracellular 2HG); type: cell-based; conditions: Homo sapiens, U-87 MG, 19 h, 1 hour + 18 hours incubation, read-out: U87MG (IDH1/R132H 2-hydroxyglutarate IC50)
# Procedure: (§1) To test the cellular inhibition of IDH1 mutant R132C, the fibrosarcoma cell line HT1080 (purchased from ATCC) is used. For testing cell-based inhibition of the R132H mutation, the U87MG glioma cell line (ATCC) was stably transfected with a DNA construct expressing the R132H mutant enzyme.
# Cells are plated in poly-D-lys coated 96 well plates (12,000 cells/well) 18-24 hours previous to treatment with compounds. Four hours prior to compound treatment, cells are glutamine-starved by removing normal media and replacing with glutamine-free media. Following starvation, cells are then treated with different concentrations of test compounds (20 μM to 1 nM) dissolved in glutamine free media containing DMSO at a final concentration of 0.2%. The initial compound incubation is for 1 hour at 37° C./5% CO2. After 1 hour, glutamine is added to a final 2 mM concentration and the treated cells are then incubated for a further 18 hours at 37° C./5% CO2. Intracellular 2HG is analyzed in cell lysates obtained after media removal and treatment with lysis buffer (25 mM Tris-HCl pH 7.5, 150 mM NaCl, 1 mM EDTA, 1 mM EGTA/1% Triton-X 100). Cell lysates are conserved at −80° C. until processing. For analyte extraction, an aliquot of thawed lysate is transferred to a deep 96-well plate and treated with cold MeOH containing d5-3HG as an internal standard followed by chloroform and H2O (1:4:3:2). The upper phase is collected after separation and injected in HPLC to separate 2HG (and internal standard) using hydrophilic interaction (HILIC) chromatography coupled to MS/MS detection in a 6460 triple quadrupole mass spectrometer. Percent inhibition for each individual sample is obtained after normalizing calculated 2HG concentration to maximum and minimum references obtained in the presence and in the absence of glutamine during cell treatment with compounds. IC50 values are obtained from individual % inhibition using a sigmoidal dose-response 4-parameter equation. These calculations are carried out automatically using Activity Base (IDBS) or Screener (Genedata) data analysis programs.
# IDH1/R132C = target: T1, IDH1/R132C (Homo sapiens, UniProt O75874, R132C); assay: Biochemical assay for IDH1 R132C mutant enzyme (2HG by RapidFire MS); conditions: mean ± standard deviation of the mean; 90 minutes reaction
# T1 construct: His-tag (N); made in house; host or cells: E. coli
# T1 sequence (O75874 whole entry R132C): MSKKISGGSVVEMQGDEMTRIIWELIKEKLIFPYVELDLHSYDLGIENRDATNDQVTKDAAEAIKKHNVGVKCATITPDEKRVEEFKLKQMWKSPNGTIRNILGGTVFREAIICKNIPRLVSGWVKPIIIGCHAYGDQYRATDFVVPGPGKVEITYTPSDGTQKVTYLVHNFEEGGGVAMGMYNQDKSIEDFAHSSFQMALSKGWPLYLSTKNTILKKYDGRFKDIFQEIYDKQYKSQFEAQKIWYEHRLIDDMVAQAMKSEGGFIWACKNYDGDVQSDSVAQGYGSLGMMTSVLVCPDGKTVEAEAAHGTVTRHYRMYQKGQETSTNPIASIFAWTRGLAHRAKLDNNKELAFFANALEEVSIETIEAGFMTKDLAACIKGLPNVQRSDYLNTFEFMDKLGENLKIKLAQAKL
# Procedure: (§2) IDH1-R132H, IDH1-R132C, IDH2-R172K and IDH2-R140Q mutant enzymes catalyze the conversion of αKG to 2HG. 2HG is analyzed using in-line solid phase extraction and mass spectrometry. This analysis is carried out in a RapidFire® instrument coupled to a 6460 triple quadrupole mass spectrometer (G6460A Agilent).
# (§3) IDH1 mutant (R132H and R132C) and IDH2 mutant (R140Q and R172K) proteins containing N-terminal His-tag are expressed in E. coli and purified using nickel affinity chromatography. The enzyme assays are carried out in V-bottom 96 well polypropylene plates containing 100 mM Tris-HCl buffer, 1 mM DTT, 0.005% TRITON™ X-100, 120 mM NaCl. For IDH1 R132H, α-ketoglutarate, NADPH and MnCl2 are included at final concentrations of 300 μM, 2.5 μM and 300 μM respectively. For IDH1 R132C, α-ketoglutarate, NADPH and MnCl2 are included at final concentrations of 100 μM, 10 μM and 100 μM respectively. For IDH2 R172K, α-ketoglutarate, NADPH and MnCl2 are included at final concentrations of 150 μM, 10 μM and 150 μM respectively. For IDH2 R140Q, α-ketoglutarate, NADPH and MnCl2 are included at final concentrations of 3000 μM, 10 μM and 100 μM respectively. Final pH=7.0. Test compound dissolved in DMSO stock is diluted in the reaction mix at a final DMSO concentration of 4%. Compounds are tested in dose-response format. The assay is started by addition of enzyme. Enzymes are used at the following final concentrations: IDH1 R132H, 2 nM; IDH1 R132C, 0.5 nM; IDH2 R172K, 1.2 nM; IDH2 R140Q, 1.2 nM. After 90 minutes the reaction is quenched by adding ACN (50:50) containing 3-hydroxy-1,5-pentanedioic-2,2,3,4,4-d5 acid (5d5-3HG) as an internal standard for mass spectrometry analysis and quantitation of reaction product. 2-Hydroxyglutarate (2HG) in quenched samples is separated using strong anionic exchange column chromatography (Phenomenex Strata-X-A SecurityGuard) and analyzed by mass spectrometry in a 6460 triple quadrupole mass spectrometer (G6460A Agilent). The 2HG signal detected is transformed into an analyte concentration using a calibration curve generated using known 2HG concentrations. […] IC50 values are obtained from the individual % inhibition values at different compound concentrations using a 4-parameter equation. These calculations are carried out using Activity Base (IDBS) or Screener (Genedata) data analysis programs.
# IDH1/R132H = target: T2, IDH1/R132H (Homo sapiens, UniProt O75874, R132H); assay: Biochemical assay for IDH1 R132H mutant enzyme (2HG by RapidFire MS); conditions: mean ± standard deviation of the mean; 90 minutes reaction
# T2 construct: His-tag (N); made in house; host or cells: E. coli
# T2 sequence (O75874 whole entry R132H): as the sequence (O75874 whole entry R132C) above, with C132H counted along it
# Procedure: as §2, §3
# [2] = test system: IDH1 mutant R132C in fibrosarcoma cell line HT1080; assay: HT1080 cell assay (intracellular 2HG and αKG); type: cell-based; conditions: Homo sapiens, 1 hour + 18 hours incubation
# Procedure: as §1
# Fifteen thousand cells are plated in poly-D-lys coated 96 well plates (15,000 cells/well) 18-24 hours prior to treatment with compounds. Four hours prior to compound treatment, cells are glutamine-starved by removing normal media and replacing with glutamine-free media. Following starvation, cells are then treated with different concentrations of test compounds (20 μM to 1 nM) dissolved in glutamine free media containing DMSO at a final concentration of 0.2%. The initial compound incubation is for 1 hour at 37° C./5% CO2. After 1 hour, glutamine is added to a final 2 mM concentration and the treated cells are then incubated for a further 18 hours at 37° C./5% CO2. Following the 18 hour incubation, intracellular 2HG and αKG are analyzed in cell lysates. Lysates are prepared following removal of media and addition of buffer containing 25 mM Tris-HCl pH 7.5, 150 mM NaCl, 1 mM EDTA, 1 mM EGTA/1% Triton-X 100 to the cells. An aliquot of lysate is added to a mix of d6-αKG and d5-3HG as internal standards and the mixture is treated with O-benzylhydroxylamine in the presence of N-(3-dimethylaminopropyl)-N′-ethylcarbodiimide hydrochloride (EDC) and pyridine. Analyte derivatives are then extracted with EtOAc, dried, and then reconstituted with 50% MeOH in H2O. Samples prepared as described are injected into the HPLC to separate 2HG and αKG derivatives (and corresponding internal standards) using a reverse phase chromatography in a C18 column. Analysis of the samples is carried out using a 6460 triple quadrupole mass spectrometer (G6460A Agilent). The 2HG and αKG signals detected are transformed into analyte concentration using the ratio of αKG/d6-αKG and the ratio of 2HG/d5-3HG that is extrapolated within a calibration curve. Percent inhibition for each individual sample is obtained after normalizing calculated 2HG or aKG concentration to maximum and minimum references obtained in the presence and in the absence of glutamine during cell treatment with compounds. IC50 values are obtained from individual % inhibition using a sigmoidal dose-response 4-parameter equation. These calculations are carried out automatically using Activity Base (IDBS) or Screener (Genedata) data analysis programs.
# [3] = HT-1080, 19 h, intracellular 2HG, read-out: HT1080 (R132C, 2-hydroxyglutarate) IC50
# [4] = HT-1080, intracellular αKG, read-out: HT1080 (R132C, αKG) IC50
Structure (SMILES),IC50 [1],IC50 (IDH1/R132C),IC50 (IDH1/R132H),"IC50 [2, 3]","IC50 [2, 4]"
"C=CC(=O)N1CCN(c2ccc([C@H](C)Nc3ncc4c(n3)N(CC)C(=O)OC4)cc2)CC1 [Example 18, 1-Ethyl-7-[[(1S)-1-[4-(4-prop-2-enoylpiperazin-1-yl)phenyl]ethyl]amino]-4H-pyrimido[4,5-d][1,3]oxazin-2-one]",70.7 nM,192 nM,211 nM,380 ± 130 nM,> 20000 nM
"C=CC(=O)N1CCN(Cc2ccc([C@H](C)Nc3ncc4c(n3)N(CC)C(=O)OC4)cc2)CC1 [Example 23, 1-Ethyl-7-[[(1S)-1-[4-[(4-prop-2-enoylpiperazin-1-yl)methyl]phenyl]ethyl]amino]-4H-pyrimido[4,5-d][1,3]oxazin-2-one 4-hydroxybenzoic acid salt]",9.03 ± 0.75 nM,234 ± 67 nM,188 ± 48 nM,32.1 ± 13.6 nM,> 20000 nM
